From US9763451B2, “Method for improved use of the production potential of genetically modified plants” (Bayer Intellectual Property GmbH, priority 2008, dated 2017)

How the values were obtained:
Format in all cases: in vivo
Aphis gossypii [1] = experiment: Aphis gossypii test (foliar application) on genetically modified cotton; conditions: 20 ppm
Source text: (§1) A synergistic effect in insecticides and acaricides is always present when the action of the active compound combinations exceeds the total of the actions of the active compounds when applied individually.
(§2) The expected action for a given combination of two active compounds can be calculated as follows, using the formula of S. R. Colby, Weeds 15 (1967), 20-22:
(§3) • X is the kill rate, expressed as % of the untreated control, when employing active compound A at an application rate of m g/ha or in a concentration of m ppm, • Y is the kill rate, expressed as % of the untreated control, when employing the transgenic seed and • E is the kill rate, expressed as % of the untreated control, when employing the active compound A at application rates of m g/ha or in a concentration of m ppm and the transgenic seed, then
(§4) If the actual insecticidal kill rate exceeds the calculated value, the action of the combination is superadditive, i.e. a synergistic effect is present. In this case, the actually observed kill rate must exceed the value calculated using the above formula for the expected kill rate (E).
(§5) Individual potted genetically modified cotton plants with Lepidoptera resistance and Glyphosate resistance are treated with the desired product against the cotton aphid (Aphis gossypii).
(§6) After the desired period of time, the kill in % is determined. 100% means that all the aphids have been killed; 0% means that none of the aphids have been killed.

Aphis gossypii [2] = experiment: Aphis gossypii test (drench application) on genetically modified cotton; conditions: 0.8 ppm
Source text: as §1, §2, §3, §4, §5, §6

Spodoptera frugiperda = Spodoptera frugiperda test (foliar application) on genetically modified maize; conditions: compound alone, 100 ppm
Source text: as §1, §2, §3, §4
Pots with in each case 5 genetically modified maize plants with Lepidoptera, Coleoptera and/or herbicide resistances are treated in 2 replications against the armyworm (Spodoptera frugiperda).
After the desired period of time, the kill in % is determined. […]

[3] = combined with cotton plant containing cry gene and Glyphosate resistance gene, expected kill

**Q.** CC(c1ccc(C(F)(F)F)nc1)S(C)(=O)=NC#N (stereo not shown) [compound I-8] was tested. Which “Kill in % after 1d, found” value (Aphis gossypii [1]; combined with cotton plant containing cry gene (Lepidoptera resistance) and Glyphosate resistance gene, after 1 d) did it give?
**A.** 85%

**Q.** What about the “Kill in % after 1d, calc. (Colby formula)” value (Aphis gossypii [1]; [3]) of the same compound?
**A.** 65%

**Q.** And the “Kill in % after 1d” value (Aphis gossypii [1]; active compound alone, after 1 d)?
**A.** 65%

**Q.** What about the “Kill in % after 2d, found” value (Aphis gossypii [2]; combined with cotton plant containing cry gene (Lepidoptera resistance) and Glyphosate resistance gene, after 2 d) of the same compound?
**A.** 90%

**Q.** What about the “Kill in % after 2d, calc. (Colby formula)” value (Aphis gossypii [2]; [3]) of the same compound?
**A.** 70%

**Q.** What about the “Kill in % after 2d” value (Aphis gossypii [2]; active compound alone, after 2 d) of the same compound?
**A.** 70%

**Q.** And the “Kill in % after 4d” value (Spodoptera frugiperda)?
**A.** 0%
